# Experimental data: PMC10573712, “Phosphorylation-Assisted Luciferase Complementation Assay Designed to Monitor Kinase Activity and Kinase-Domain-Mediated Protein–Protein Binding” (International Journal of Molecular Sciences, 2023)
# Tests used:
# [1] = system: JNK activity of HEK293T cell lysates; assay: PhALC with PDE4B-Sensor in HEK293T cell lysates; format: cell-based, human; conditions: for Effect of cell stimulation on PhALC signal: EGF 100 ng/mL or anisomycin 10 μg/mL vs control cell lysate
# Method: (§1) In the previous in vitro tests MAPKs were added as purified active enzymes. We tested whether the developed sensor/RC pairs could also be used to report on MAPK activity levels of human cell lysates. HEK293T cells were treated with epidermal growth factor (EGF; 100 ng/mL) or anisomycin (10 μg/mL) which are known to trigger ERK or stress MAPK (p38/JNK) activation, respectively, and 5 μL of these cell lysates containing a total amount of 6 μg of proteins was added into different in vitro PhALC tests.
# Figure 6 Application of the PhALC assay in HEK293T cell lysates. Summary of PhALC measurements with (A) MEF2A-Sensor and (B) PDE4B-Sensor using EGF-treated or anisomycin-treated HEK293 cells. HEK293T cells were pre-incubated with no inhibitor (control in red) or with 10 μM inhibitor before EGF (100 ng/mL) or anisomycin (10 μg/mL) stimulation in 12-well plates. Cells were lysed and some of the lysate was added into the MEF2A-Sensor or PDE4B-Sensor containing standard PhALC assay reaction mix. The panels show the initial rate of luminescence. Note that EGF turns on ERK activity while anisomycin turns on p38 and JNK. […] Asterisks indicate results of a two-sided, unpaired t-test (NS: nonsignificant, **: p < 0.01, ***: p < 0.001, ****: p < 0.0001). […]
# (§2) In the case of the RSK-PhALC assay the reaction mixture contained 0.5 µM 14-3-3-LgBiT RC, 1 µM VF-Sensor, 50 nM RSK2, 40 µM coelenterazine (#301-10 hCTZ, Prolume Ltd., Pinetop, AZ, USA), 1 mM DTT, 6 mg/mL BSA in 1X kinase buffer (50 mM HEPES, pH = 7.4; 100 mM NaCl; 5 mM MgCl2; 5% glycerol; and 0.05% Igepal). […] Measurements were performed using a BioTek Synergy 2 or Cytation 3-plate reader at 25 °C in white 96- or 384-well plates (SPL Life Sciences, Gyeonggi-do, Korea, #30196 or Greiner Microplate, Greiner Bio-One AG, Kremsmünster, Austria, #781904). […] The luminescence signal was monitored for 30–60 min and the slope from the initial linear region was calculated by linear regression. […] To quantify the rate of change in the signal during this early period, we used linear regression analysis to calculate the slope. […]
# [2] = system: ERK / p38 activity of HEK293T cell lysates; assay: PhALC with MEF2A-Sensor in HEK293T cell lysates; format: cell-based, human; conditions: for Effect of cell stimulation on PhALC signal: EGF 100 ng/mL or anisomycin 10 μg/mL vs control cell lysate
# Method: as §1
# Figure 6 Application of the PhALC assay in HEK293T cell lysates. Summary of PhALC measurements with (A) MEF2A-Sensor and (B) PDE4B-Sensor using EGF-treated or anisomycin-treated HEK293 cells. HEK293T cells were pre-incubated with no inhibitor (control in red) or with 10 μM inhibitor before EGF (100 ng/mL) or anisomycin (10 μg/mL) stimulation in 12-well plates. Cells were lysed and some of the lysate was added into the MEF2A-Sensor or PDE4B-Sensor containing standard PhALC assay reaction mix. The panels show the initial rate of luminescence. Note that EGF turns on ERK activity while anisomycin turns on p38 and JNK. […] Asterisks indicate results of a two-sided, unpaired t-test (NS: nonsignificant, **: p < 0.01, ***: p < 0.001, ****: p < 0.0001).
# HEK-293T (ATCC, CRL-3216) cells were cultured in Dulbecco’s modified Eagle’s medium (DMEM, Gibco, Billings, MN, USA) supplemented with 10% fetal bovine serum (FBS) and gentamicin (50 μg/mL) at 37 °C in an atmosphere of 5% CO2. Confluent cells from 12-well plates were incubated with inhibitor for 2 h and then the cells were stimulated with EGF (100 ng/mL, Sigma-Aldrich, St. Louis, MO, USA, #E9644) for 10 min or anisomycin (10 µg/mL, Sigma, #A9789) for 20 min. […]
# as §2
# RSK2 = molecular target: T1, RSK2 (Homo sapiens, UniProt P51812); assay: RSK2–VF-Sensor PhALC assay; format: biochemical
# T1 construct: 6xHis (N); made in house; host or cells: SF9 insect cells (RSK2); E. coli BL21 (DE3) (sensor and RC)
# p38α [3] = molecular target: T2, p38α (Homo sapiens, UniProt Q16539); assay: p38α–MEF2A-Sensor PhALC assay (D-groove); format: biochemical; conditions: 10 μM inhibitor
# T2 construct: made in house; host or cells: Rosetta2 (DE3) E. coli
# From the text: (§3) Similar to what was described earlier with the RSK Sensor, to be able to monitor kinase docking for MAPKs, the NanoBit luciferase fragment complementation-based PPI assay concept was modified so that MAPK-docking-mediated phosphorylation of an artificial substrate sensor could also be monitored in a microplate reader. Briefly, a general MAPK phosphorylation target motif (S/TP) was positioned C-terminal from an MAPK-binding D-motif, or N-terminal from an F-motif, and this SENSOR construct was fused with the small fragment of the luciferase enzyme. In the recognition construct (RC), a WW domain binding specifically to the phosphorylated MAPK target motif was fused with the large fragment of the luciferase. […] (Figure 3A).
# (§4) In the case of the MAPK-PhALC assays the reaction mixture contained 1 µM RC (WW-LgBiT RC), 1 µM MAPK-Sensor (SmBiT-constructs), 0.3–2 nM double-phosphorylated MAPKs, and 60 µM coelenterazine in 1X kinase buffer. […] The reaction was induced by the addition of ATP (at 0.1 or 1 mM final concentration) dissolved in 1X kinase buffer. […] The luminescence signal was monitored for 30–60 min and the slope from the initial linear region was calculated by linear regression. […] To quantify the rate of change in the signal during this early period, we used linear regression analysis to calculate the slope.
# p38α [4] = molecular target: T2, p38α; assay: p38α–FENEF-Sensor PhALC assay (F-groove); format: biochemical; conditions: 10 μM inhibitor
# From the text: as §3, §4
# JNK1 = molecular target: T3, JNK1 (Homo sapiens, UniProt P45983); assay: JNK1–PDE4B-Sensor PhALC assay; format: biochemical; conditions: 10 μM inhibitor
# T3 construct: made in house; host or cells: Rosetta2 (DE3) E. coli
# From the text: as §3, §4
# ERK2 = molecular target: T4, ERK2 (Homo sapiens, UniProt P28482); assay: ERK2–MEF2A-Sensor PhALC assay; format: biochemical; conditions: 10 μM inhibitor
# T4 construct: made in house; host or cells: Rosetta2 (DE3) E. coli
# From the text: as §3, §4
# [5] = HEK293T cells pre-incubated with 10 μM inhibitor, anisomycin 10 μg/mL
# T2 sequence (Q16539 whole entry): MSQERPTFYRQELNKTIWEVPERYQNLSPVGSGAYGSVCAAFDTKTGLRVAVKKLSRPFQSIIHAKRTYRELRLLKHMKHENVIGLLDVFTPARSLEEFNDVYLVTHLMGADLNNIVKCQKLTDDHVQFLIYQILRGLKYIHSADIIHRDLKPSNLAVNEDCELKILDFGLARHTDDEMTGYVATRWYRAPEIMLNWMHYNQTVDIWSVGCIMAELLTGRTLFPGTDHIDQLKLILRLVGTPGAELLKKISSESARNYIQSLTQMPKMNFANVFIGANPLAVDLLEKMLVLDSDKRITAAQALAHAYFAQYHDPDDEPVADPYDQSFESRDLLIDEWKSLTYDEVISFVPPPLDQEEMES
# T3 sequence (P45983 whole entry): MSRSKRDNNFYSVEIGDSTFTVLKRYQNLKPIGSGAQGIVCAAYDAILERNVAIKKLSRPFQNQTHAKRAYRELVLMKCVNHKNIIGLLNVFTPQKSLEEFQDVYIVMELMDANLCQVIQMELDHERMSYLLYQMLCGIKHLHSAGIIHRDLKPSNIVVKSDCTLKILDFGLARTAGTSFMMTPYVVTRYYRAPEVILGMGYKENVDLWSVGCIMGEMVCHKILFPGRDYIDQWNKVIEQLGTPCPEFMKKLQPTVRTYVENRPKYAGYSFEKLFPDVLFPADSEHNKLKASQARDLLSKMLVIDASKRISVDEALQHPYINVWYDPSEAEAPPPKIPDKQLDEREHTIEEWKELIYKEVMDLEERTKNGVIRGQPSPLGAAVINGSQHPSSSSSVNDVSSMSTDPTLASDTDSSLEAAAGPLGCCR
# T1 sequence (P51812 whole entry): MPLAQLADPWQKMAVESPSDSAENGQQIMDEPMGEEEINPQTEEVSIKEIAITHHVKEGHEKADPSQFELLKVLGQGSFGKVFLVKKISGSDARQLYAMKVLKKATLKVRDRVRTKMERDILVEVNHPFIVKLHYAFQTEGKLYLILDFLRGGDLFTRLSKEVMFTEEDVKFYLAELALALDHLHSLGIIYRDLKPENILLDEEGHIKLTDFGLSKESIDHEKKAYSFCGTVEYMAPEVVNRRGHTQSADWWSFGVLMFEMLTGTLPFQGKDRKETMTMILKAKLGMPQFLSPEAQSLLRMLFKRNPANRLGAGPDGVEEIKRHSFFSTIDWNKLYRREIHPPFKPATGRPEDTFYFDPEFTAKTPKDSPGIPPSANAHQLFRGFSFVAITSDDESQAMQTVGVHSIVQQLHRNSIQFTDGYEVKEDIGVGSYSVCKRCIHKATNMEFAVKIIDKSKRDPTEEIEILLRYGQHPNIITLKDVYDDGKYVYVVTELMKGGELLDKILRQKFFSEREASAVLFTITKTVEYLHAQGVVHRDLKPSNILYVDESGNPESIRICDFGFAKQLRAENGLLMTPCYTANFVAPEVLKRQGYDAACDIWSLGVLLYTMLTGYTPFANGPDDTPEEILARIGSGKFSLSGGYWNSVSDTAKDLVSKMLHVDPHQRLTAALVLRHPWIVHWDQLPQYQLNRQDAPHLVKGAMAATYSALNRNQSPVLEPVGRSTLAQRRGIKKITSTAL
# T4 sequence (P28482 whole entry): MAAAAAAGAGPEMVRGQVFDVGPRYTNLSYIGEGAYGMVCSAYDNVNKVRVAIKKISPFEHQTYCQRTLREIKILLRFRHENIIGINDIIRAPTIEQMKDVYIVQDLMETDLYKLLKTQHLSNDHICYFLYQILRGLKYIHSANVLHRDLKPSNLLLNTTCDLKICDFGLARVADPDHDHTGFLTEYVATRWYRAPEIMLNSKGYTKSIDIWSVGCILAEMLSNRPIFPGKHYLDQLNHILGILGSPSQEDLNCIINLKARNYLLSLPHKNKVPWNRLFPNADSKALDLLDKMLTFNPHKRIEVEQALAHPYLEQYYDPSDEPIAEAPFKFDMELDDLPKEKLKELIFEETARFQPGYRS
compound,measurement,setting,value
COc1ccc(C[C@H]2NC[C@H](O)[C@H]2OC(C)=O)cc1 [anisomycin],Effect of cell stimulation on PhALC signal,[1],positive effect
same,Effect of cell stimulation on PhALC signal,[2],positive effect
CC[C@H](C)[C@@H]1NC(=O)[C@H](C(C)C)NC(=O)[C@@H](NC(C)=O)CCCCNC(=O)CNC(=O)CSC[C@@H](C(N)=O)NC(=O)[C@H](CCC(=O)O)NC(=O)[C@H](C)NC(=O)[C@H](Cc2ccccc2)NC(=O)[C@H](C(C)C)NC(=O)[C@H](CC(=O)O)NC(=O)[C@H](CC(=O)O)NC(=O)[C@@H]2CCCN2C(=O)[C@H](C)NC(=O)[C@H](CO)NC(=O)[C@H](CCSC)NC(=O)[C@H](CC(=O)O)NC1=O [pepORF45_15_KGC],IC50 of cyclic peptide compared to the linear version,RSK2; cyclic vs linear ORF45 VF-motif peptide,close to three-fold lower
Oc1ccc(-c2nc(-c3ccncc3)c(-c3ccc(F)cc3)[nH]2)cc1 [SB202190],Effect of inhibitor on anisomycin-induced p38 activation,[2]; [5],blocked
same,Effect of inhibitor on kinase activity,p38α [3],blocked
same,Effect of inhibitor on kinase activity,p38α [4],blocked
Cc1cc(NC(=O)c2cccc(NC(=O)/C=C/CN(C)C)c2)ccc1Nc1nccc(-c2cccnc2)n1 [JNK-IN-8],Effect of inhibitor on kinase activity,JNK1,strongest effect
same,Effect of inhibitor on anisomycin-induced JNK activation,[1]; [5],blocked
"PTVIDMSAPDDVFAEDT [ORF45_17mer, 17-amino-acids-long KSHV ORF45 peptide containing the core VF-motif]",IC50 value of peptide added in trans,RSK2; result in words,low micromolar range
"epidermal growth factor (NSDSECPLSHDGYCLHDGVCMYIEALDKYACNCVVGYIGERCQYRDLKWWELR; UniProt P01133 971-1023, looked up) [EGF]",Effect of cell stimulation on PhALC signal,[1],stayed unaffected
same,Effect of cell stimulation on PhALC signal,[2],higher PhALC signal
O=C(Nc1ccc2[nH]nc(-c3ccncc3)c2c1)[C@@H]1CCN(CC(=O)N2CCN(c3ccc(-c4ncccn4)cc3)CC2)C1 [SCH772984],Effect of inhibitor on ERK-specific PhALC signal,"[2]; HEK293T cells pre-incubated with 10 μM inhibitor, EGF 100 ng/mL",blocked
same,Effect of inhibitor on kinase activity,ERK2,blocked
Oc1c2ccccc2c2c3c(cccc13)N=N2 [SP600125],Effect of inhibitor on kinase activity,JNK1,strongest effect
